Common to all, as to assay type: cell-based
The target in assay [1] is T1, CaAto1 (Ato1-GFP) (Candida albicans, UniProt A0A1D8PHP8).
T1 construct: gene FRP3; full length with C-terminal GFP at both native loci, in C. albicans cells (ATO1-GFP/ATO1-GFP)
As to the kind of experiment: […]lactate uptake in cells, against ato1 deletion strain. As to conditions: pH 6.0, 30 °C, 1-24 mM; H+ symport; labelled compound.

Assay [2] has as its target T1, CaAto1 (Ato1-GFP). As to the kind of experiment: competition of […]acetate uptake in cells. Conditions: 0.1 mM [14C]acetate, 10 mM competitor, pH 6.0, 30 °C, collective statement for most carboxylates, estimated from one concentration.
For assay [3], the target named is T1, CaAto1 (Ato1-GFP). As to the kind of experiment: competition of […]acetate uptake in cells. Conditions: read-out: % inhibition at 10 mM.

Like-named read-outs stand apart in the source and are kept apart here. A value given as a limit tells only on which side of the number the result lay.

T1 sequence (A0A1D8PHP8 entry or part of it): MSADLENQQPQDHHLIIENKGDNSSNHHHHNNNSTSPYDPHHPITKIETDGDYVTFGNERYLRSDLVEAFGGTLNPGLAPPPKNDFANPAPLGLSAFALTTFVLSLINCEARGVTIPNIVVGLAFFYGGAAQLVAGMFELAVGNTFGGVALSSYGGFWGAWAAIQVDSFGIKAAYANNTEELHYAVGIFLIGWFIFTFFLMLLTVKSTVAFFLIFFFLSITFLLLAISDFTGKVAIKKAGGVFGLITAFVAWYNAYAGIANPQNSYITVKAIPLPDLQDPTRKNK

For the compound `C[C@H](O)C(=O)O` [[14C]lactate], the “[14C]lactate uptake in cells, against ato1 deletion strain” value in assay [1] is on record as “practically no lactate uptake was recorded in ato1Δ/Δ or ato1-10Δ/Δ strains”.

Take `C[C@H](O)C(=O)O` [lactate]: in assay [2] (read-out: Ki), the Ki (commonly a measure of affinity in units of concentration, obtained from inhibition or displacement) was above 10 mM. For the compound `O=C(O)CCC(=O)O` [succinate], the Ki in assay [2] is above 10 mM. On the same count and under the same terms, under `O=C(O)C[C@H](O)C(=O)O` [malate] stands above 10 mM. `O=CO` [formate]: the Ki in assay [2] is above 10 mM. In the case of `CCCC(=O)O` [butyrate], the inhibition (commonly the share of the control response that was lost under treatment) at 10000 µM in assay [3] is around 50%. For the compound `O=C(O)CC(O)(CC(=O)O)C(=O)O` [citrate], the Ki in assay [2] is above 10 mM. For `CC(=O)C(=O)O` [pyruvate], the Ki in assay [2] (read-out: Ki) is above 10 mM.

The record behind these values is PMC13316224, “Expansion, functional diversification, and gene fusion events in the Ato protein family” (iScience, 2026).
